Test results as given in PubChem BioAssay AID308 (DTP/NCI, 2004).
Where “and” joins values, the source holds several entries; their conditions need not be identical. Equal entries are not always repeated. Inconclusive results and toxic doses are left out.

Test system: BDF1 mice, L1210 6-MP/6-TG resistant leukemia ip, survival T/C
Experiment: NCI In Vivo Anticancer Drug Screen. Data for tumor model L1210 Leukemia resistant to 6-MP and 6-Thioguanine; NSC 755, NSC 752 (intraperitoneal) in B6D2F1 (BDF1) mice
Conditions: endpoint: mean survival time, higher = longer survival
Protocol: The antitumor activity of compounds was measured in mice bearing transplantable tumors. Survival or tumor size were measured and the results are expressed as the measurement made in the treated group (T) divided by the measurement made in the vehicle treated control group (C). The tumor model used in this assay is L1210 Leukemia resistant to 6-MP and 6-Thioguanine; NSC 755, NSC 752 (intraperitoneal) in B6D2F1 (BDF1) mice

[1] = dose: 5.0 mg/kg/injection, schedule: Q01DX Z (ip), vehicle: carboxymethylcellulose (CMC)
[2] = dose: 10.0 mg/kg/injection, schedule: Q01DX Z (ip), vehicle: carboxymethylcellulose (CMC)
[3] = dose: 25.0 mg/kg/injection, schedule: Q01DX Z (ip), vehicle: carboxymethylcellulose (CMC)
[4] = dose: 150.0 mg/kg/injection, schedule: Q01DX Z (ip), vehicle: carboxymethylcellulose (CMC)
[5] = dose: 1000.0 mg/kg/injection, schedule: Q01DX001 (ip), vehicle: carboxymethylcellulose (CMC)

Nc1nc(F)nc2c1ncn2C1OC(CO)C(O)C1O (centres undefined)
T/C (dose: 0.06 mg/kg/injection, schedule: Q01DX Z (ip), vehicle: saline): 109 % of control | T/C (dose: 0.12 mg/kg/injection, schedule: Q01DX Z (ip), vehicle: saline): 104 % of control | T/C (dose: 0.25 mg/kg/injection, schedule: Q01DX Z (ip), vehicle: saline): 106 % of control | T/C (dose: 0.5 mg/kg/injection, schedule: Q01DX Z (ip), vehicle: saline): 101 % of control | T/C (dose: 0.75 mg/kg/injection, schedule: Q01DX Z (ip), vehicle: saline): 119 % of control | T/C (dose: 1.5 mg/kg/injection, schedule: Q01DX Z (ip), vehicle: saline): 107 % of control | T/C (dose: 3.0 mg/kg/injection, schedule: Q01DX Z (ip), vehicle: saline): 115 % of control | T/C (dose: 6.0 mg/kg/injection, schedule: Q01DX Z (ip), vehicle: saline): 90 % of control

Nc1nc(SCc2ccccc2)c2[nH]cnc2n1
T/C [1]: 88 % of control | T/C [2]: 91 % of control | T/C [3]: 86 % of control | T/C (dose: 37.5 mg/kg/injection, schedule: Q01DX Z (ip), vehicle: carboxymethylcellulose (CMC)): 95 % of control

O=C(O)CCCc1ccc(N(CCCl)CCCl)cc1
T/C [1]: 117 % of control | T/C [2]: 114 % of control | T/C (dose: 20.0 mg/kg/injection, schedule: Q01DX Z (ip), vehicle: carboxymethylcellulose (CMC)): 115 % of control | T/C (dose: 30.0 mg/kg/injection, schedule: Q01DX Z (ip), vehicle: carboxymethylcellulose (CMC)): 89 % of control

O=C(Nc1ccc(C2=NCCN2)cc1)c1ccc(C(=O)Nc2ccc(C3=NCCN3)cc2)cc1
T/C (dose: 18.75 mg/kg/injection, schedule: Q01DX Z (ip), vehicle: carboxymethylcellulose (CMC)): 154 % of control | T/C [3]: 151 % of control | T/C (dose: 27.0 mg/kg/injection, schedule: Q02DX010 (ip), vehicle: carboxymethylcellulose (CMC)): 312 % of control | T/C (dose: 40.0 mg/kg/injection, schedule: Q02DX010 (ip), vehicle: carboxymethylcellulose (CMC)): 317 % of control | T/C (dose: 50.0 mg/kg/injection, schedule: Q01DX Z (ip), vehicle: carboxymethylcellulose (CMC)): 219 % of control | T/C (dose: 60.0 mg/kg/injection, schedule: Q02DX010 (ip), vehicle: carboxymethylcellulose (CMC)): 296 % of control | T/C (dose: 75.0 mg/kg/injection, schedule: Q01DX Z (ip), vehicle: carboxymethylcellulose (CMC)): 188 % of control and 232 % of control | T/C (dose: 90.0 mg/kg/injection, schedule: Q02DX010 (ip), vehicle: carboxymethylcellulose (CMC)): 280 % of control | T/C (dose: 100.0 mg/kg/injection, schedule: Q01DX Z (ip), vehicle: carboxymethylcellulose (CMC)): 288 % of control and 295 % of control | T/C (dose: 135.0 mg/kg/injection, schedule: Q02DX010 (ip), vehicle: carboxymethylcellulose (CMC)): 312 % of control | T/C [4]: 300 % of control | T/C (dose: 200.0 mg/kg/injection, schedule: Q01DX Z (ip), vehicle: carboxymethylcellulose (CMC)): 186 % of control

Clc1ncnc2c1ncn2C1CCCCO1 (centres undefined)
T/C (dose: 62.0 mg/kg/injection, schedule: Q01DX Z (ip), vehicle: other): 96 % of control | T/C (dose: 125.0 mg/kg/injection, schedule: Q01DX Z (ip), vehicle: other): 91 % of control

CCCCCCCSc1ncnc2c1ncn2CO
T/C (dose: 150.0 mg/kg/injection, schedule: Q01DX009 (ip), vehicle: other): 96 % of control | T/C (dose: 200.0 mg/kg/injection, schedule: Q01DX009 (ip), vehicle: other): 95 % of control | T/C (dose: 300.0 mg/kg/injection, schedule: Q01DX009 (ip), vehicle: other): 100 % of control | T/C (dose: 400.0 mg/kg/injection, schedule: Q01DX009 (ip), vehicle: other): 86 % of control

CC(C)Cn1cnc2c(=S)nc(N)[nH]c21
T/C (dose: 9.0 mg/kg/injection, schedule: Q01DX015 (ip), vehicle: other): 107 % of control | T/C (dose: 14.0 mg/kg/injection, schedule: Q01DX015 (ip), vehicle: other): 106 % of control | T/C (dose: 21.0 mg/kg/injection, schedule: Q01DX015 (ip), vehicle: other): 102 % of control | T/C (dose: 36.0 mg/kg/injection, schedule: Q01DX015 (ip), vehicle: other): 95 % of control

OCC1OC(n2cnc3c(=S)nc[nH]c32)CC1O (centres undefined)
T/C (dose: 62.0 mg/kg/injection, schedule: Q01DX015 (ip), vehicle: carboxymethylcellulose (CMC)): 98 % of control | T/C (dose: 125.0 mg/kg/injection, schedule: Q01DX015 (ip), vehicle: carboxymethylcellulose (CMC)): 96 % of control | T/C (dose: 250.0 mg/kg/injection, schedule: Q01DX015 (ip), vehicle: carboxymethylcellulose (CMC)): 93 % of control

O=P(O)(OCC1OC(n2cnc3c(=S)nc[nH]c32)C(O)C1O)Oc1ccccc1 (centres undefined)
T/C (dose: 200.0 mg/kg/injection, schedule: Q01DX001 (ip), vehicle: carboxymethylcellulose (CMC)): 103 % of control | T/C (dose: 300.0 mg/kg/injection, schedule: Q01DX001 (ip), vehicle: carboxymethylcellulose (CMC)): 99 % of control | T/C (dose: 400.0 mg/kg/injection, schedule: Q01DX001 (ip), vehicle: carboxymethylcellulose (CMC)): 100 % of control | T/C (dose: 500.0 mg/kg/injection, schedule: Q01DX001 (ip), vehicle: carboxymethylcellulose (CMC)): 103 % of control | T/C (dose: 750.0 mg/kg/injection, schedule: Q01DX001 (ip), vehicle: carboxymethylcellulose (CMC)): 94 % of control | T/C [5]: 86 % of control

CCCCNc1ncnc2c1cnn2C
T/C (dose: 2.5 mg/kg/injection, schedule: Q01DX Z (ip), vehicle: saline): 105 % of control | T/C (dose: 5.0 mg/kg/injection, schedule: Q01DX Z (ip), vehicle: saline): 105 % of control | T/C (dose: 10.0 mg/kg/injection, schedule: Q01DX Z (ip), vehicle: saline): 105 % of control | T/C (dose: 20.0 mg/kg/injection, schedule: Q01DX Z (ip), vehicle: saline): 104 % of control | T/C (dose: 31.0 mg/kg/injection, schedule: Q01DX Z (ip), vehicle: saline): 119 % of control | T/C (dose: 62.5 mg/kg/injection, schedule: Q01DX Z (ip), vehicle: saline): 104 % of control | T/C (dose: 125.0 mg/kg/injection, schedule: Q01DX Z (ip), vehicle: saline): 95 % of control

CCSc1nc(Cl)cc(Sc2nc(N)nc3nc[nH]c23)n1
T/C (dose: 8.0 mg/kg/injection, schedule: Q01DX Z (ip), vehicle: other): 107 % of control | T/C (dose: 16.0 mg/kg/injection, schedule: Q01DX Z (ip), vehicle: other): 90 % of control

CCCSc1nc(N)nc2nc[nH]c12
T/C (dose: 12.0 mg/kg/injection, schedule: Q01DX Z (ip), vehicle: saline): 114 % of control | T/C (dose: 25.0 mg/kg/injection, schedule: Q01DX Z (ip), vehicle: saline): 106 % of control | T/C (dose: 50.0 mg/kg/injection, schedule: Q01DX Z (ip), vehicle: saline): 107 % of control | T/C (dose: 100.0 mg/kg/injection, schedule: Q01DX Z (ip), vehicle: saline): 103 % of control | T/C [4]: 91 % of control

C=CCSc1ncnc2c1ncn2C1OC(CO)C(O)C1O (centres undefined)
T/C (dose: 5.0 mg/kg/injection, schedule: Q01DX015 (ip), vehicle: saline): 112 % of control | T/C (dose: 10.0 mg/kg/injection, schedule: Q01DX015 (ip), vehicle: saline): 102 % of control | T/C (dose: 20.0 mg/kg/injection, schedule: Q01DX015 (ip), vehicle: saline): 100 % of control | T/C (dose: 40.0 mg/kg/injection, schedule: Q01DX015 (ip), vehicle: saline): 100 % of control | T/C (dose: 50.0 mg/kg/injection, schedule: Q01DX015 (ip), vehicle: saline): 105 % of control | T/C (dose: 100.0 mg/kg/injection, schedule: Q01DX015 (ip), vehicle: saline): 94 % of control | T/C (dose: 200.0 mg/kg/injection, schedule: Q01DX015 (ip), vehicle: saline): 90 % of control

OCC1OC(n2cnc3c(Cl)ncnc32)C(O)C1O (centres undefined)
T/C (dose: 62.5 mg/kg/injection, schedule: Q01DX Z (ip), vehicle: carboxymethylcellulose (CMC)): 91 % of control | T/C (dose: 125.0 mg/kg/injection, schedule: Q01DX Z (ip), vehicle: carboxymethylcellulose (CMC)): 89 % of control | T/C (dose: 250.0 mg/kg/injection, schedule: Q01DX Z (ip), vehicle: carboxymethylcellulose (CMC)): 95 % of control | T/C (dose: 500.0 mg/kg/injection, schedule: Q01DX Z (ip), vehicle: carboxymethylcellulose (CMC)): 95 % of control | T/C [5]: 92 % of control and 97 % of control | T/C (dose: 1500.0 mg/kg/injection, schedule: Q01DX001 (ip), vehicle: carboxymethylcellulose (CMC)): 94 % of control and 99 % of control | T/C (dose: 2000.0 mg/kg/injection, schedule: Q01DX001 (ip), vehicle: carboxymethylcellulose (CMC)): 94 % of control and 97 % of control

Nc1nc(=S)c2ncn(C3OC(CO)CC3O)c2[nH]1 (centres undefined)
T/C (dose: 1.5 mg/kg/injection, schedule: Q01DX009 (ip), vehicle: other): 99 % of control | T/C (dose: 3.0 mg/kg/injection, schedule: Q01DX009 (ip), vehicle: other): 99 % of control | T/C (dose: 6.0 mg/kg/injection, schedule: Q01DX009 (ip), vehicle: other): 107 % of control | T/C (dose: 12.5 mg/kg/injection, schedule: Q01DX015 (ip), vehicle: other): 87 % of control
